Results taken from BindingDB's records for doi:10.1016/s0960-894x(99)00213-9 (Cardiff University, 1999).

Legend:
[1] = molecular target: Dihydrofolate reductase (Trypanosoma cruzi); assay: Inhibitory activity against Trypanosoma cruzi dihydrofolate reductase
[2] = molecular target: Dihydrofolate reductase (Trypanosoma cruzi); assay: as above; remark: listed apart in the source

Ki [1] [nM] | Ki [2] [nM] | SMILES
56 |  | CCOC(=O)CCCCCN(Cc1cnc2nc(N)nc(N)c2n1)c1ccc(C(=O)NC(CCC(=O)OCC)C(=O)OCC)cc1 (centres undefined) [2-{4-[(2,4-Diamino-pteridin-6-ylmethyl)-(5-ethoxycarbonyl-pentyl)-amino]-benzoylamino}-pentanedioic acid diethyl ester]
46 |  | CCOC(=O)CCCCN(Cc1cnc2nc(N)nc(N)c2n1)c1ccc(C(=O)NC(CCC(=O)OCC)C(=O)OCC)cc1 (centres undefined) [2-{4-[(2,4-Diamino-pteridin-6-ylmethyl)-(4-ethoxycarbonyl-butyl)-amino]-benzoylamino}-pentanedioic acid diethyl ester]
0.131 |  | Nc1nc(N)c2nc(CN(CCCCC(=O)O)c3ccc(C(=O)NC(CCC(=O)O)C(=O)O)cc3)cnc2n1 (centres undefined) [2-{4-[(4-Carboxy-butyl)-(2,4-diamino-pteridin-6-ylmethyl)-amino]-benzoylamino}-pentanedioic acid]
 | 0.183 | Nc1nc(N)c2nc(CN(CCCCCC(=O)O)c3ccc(C(=O)NC(CCC(=O)O)C(=O)O)cc3)cnc2n1 (centres undefined) [2-{4-[(5-Carboxy-pentyl)-(2,4-diamino-pteridin-6-ylmethyl)-amino]-benzoylamino}-pentanedioic acid]
